Reference: publication PMC10125328 (ACS Bio & Med Chem Au, 2023)
“And” between values parts separate entries of the source, which are not always exact repeats. Identical values can stand only once. Like-named read-outs stand apart in the source and are kept apart here.

How the values were obtained:
Ftu-1 β-lactamase [1] = molecular target: T1, Ftu-1 β-lactamase (Francisella tularensis, UniProt Q5NH60); conditions: cited from earlier work
Ftu-1 β-lactamase [2] = molecular target: T1, Ftu-1 β-lactamase; assay type: biochemical
Ftu-1 β-lactamase [3] = molecular target: T1, Ftu-1 β-lactamase; assay: biochemical

T1 sequence (Q5NH60 1-287): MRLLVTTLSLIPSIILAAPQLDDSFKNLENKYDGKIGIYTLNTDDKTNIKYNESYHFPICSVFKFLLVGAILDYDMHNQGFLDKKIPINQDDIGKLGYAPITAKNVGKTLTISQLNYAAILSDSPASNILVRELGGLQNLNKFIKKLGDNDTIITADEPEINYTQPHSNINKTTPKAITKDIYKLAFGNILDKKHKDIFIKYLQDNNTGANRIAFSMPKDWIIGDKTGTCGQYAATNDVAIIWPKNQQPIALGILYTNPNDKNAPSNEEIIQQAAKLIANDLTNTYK

Which “hydrolysis in the presence of Ftu-1” value (Ftu-1 β-lactamase [1]) does the source give for `C[C@H]1[C@H](NC(=O)/C(=N\OC(C)(C)C(=O)O)c2csc(N)n2)C(=O)N1S(=O)(=O)O` [aztreonam] here?
Its value is “unhydrolyzed”.

With `CO[C@@]1(NC(=O)Cc2cccs2)C(=O)N2C(C(=O)O)=C(COC(N)=O)CS[C@@H]21` [cefoxitin] as the compound, how does the “hydrolysis in the presence of Ftu-1” value (Ftu-1 β-lactamase [1]) read?
The value was “unhydrolyzed”.

With `CO/N=C(\C(=O)N[C@@H]1C(=O)N2C(C(=O)O)=C(COC(N)=O)CS[C@H]12)c1ccco1` [cefuroxime] as the compound, how does the Km (Ftu-1 β-lactamase [1]) read?
The Km was 14 ± 2 µM.

With `O=C(Cc1cccs1)N[C@@H]1C(=O)N2C(C(=O)O)=C(CSc3ccc([N+](=O)[O-])c(C(=O)O)c3)CS[C@H]12` [CENTA] as the compound, how does the Km (Ftu-1 β-lactamase [2]; pH 4.8) read?
Its Km is 655 ± 37.1 µM.

What about the Vmax (Ftu-1 β-lactamase [2]; pH 4.8) of the same compound?
The Vmax was 1.001 ± 0.005 µM/min.

And the kcat (Ftu-1 β-lactamase [2]; pH 4.8)?
The kcat was 101 ± 1 min^–1.

And the Vmax (Ftu-1 β-lactamase [2]; pH 5.8)?
The Vmax was 13.12 ± 0.62 µM/min.

And the kcat (Ftu-1 β-lactamase [2]; pH 5.8)?
The kcat was 1312.75 ± 62.75 min^–1.

What about the Vmax (Ftu-1 β-lactamase [2]; pH 6.4) of the same compound?
The Vmax was 24.8 ± 0.9 µM/min.

What about the Vmax (Ftu-1 β-lactamase [2]; pH 7.2) of the same compound?
The Vmax was 30.5 ± 0.5 µM/min.

And the Km (Ftu-1 β-lactamase [2]; pH 7.6)?
The Km was 128 ± 57 µM.

And the Vmax (Ftu-1 β-lactamase [2]; pH 7.6)?
Its Vmax is 49.51 ± 15.84 µM/min.

And the kcat (Ftu-1 β-lactamase [2]; pH 7.6)?
The kcat was 4951.67 ± 1583 min^–1.

And the Km (Ftu-1 β-lactamase [2]; pH 8.5)?
The Km was 228 ± 11.1 µM.

And the kcat (Ftu-1 β-lactamase [2]; pH 9.5)?
Its kcat is 38.96 ± 11.2 min^–1.

And the Km (Ftu-1 β-lactamase [2]; pH 10.5)?
Its Km is 218 ± 30.8 µM.

And the kcat (Ftu-1 β-lactamase [2]; pH 10.5)?
The kcat was 8.85 ± 0.15 min^–1.

With `CC1(C)[C@H](C(=O)O)N2C(=O)C[C@H]2S1(=O)=O` [sulbactam] as the compound, how does the Ki (Ftu-1 β-lactamase [3]) read?
Its Ki is 21.1 µM.

With `O=C(O)[C@H]1/C(=C/CO)O[C@@H]2CC(=O)N21` [clavulanic acid] as the compound, how does the Ki (Ftu-1 β-lactamase [3]) read?
Its Ki is 30.7 µM.

For `C[C@]1(Cn2ccnn2)[C@H](C(=O)O)N2C(=O)C[C@H]2S1(=O)=O` [tazobactam], which Ki (Ftu-1 β-lactamase [3]) is on record?
Its Ki is 1.19 µM and 1.2 µM.

For `C[C@@H](O)[C@H]1C(=O)N2C(C(=O)O)=C(SCCN=CN)C[C@H]12` [imipenem], which Ki (Ftu-1 β-lactamase [3]) is on record?
The Ki was 73.8 µM.

And the Km (Ftu-1 β-lactamase [1])?
The Km was 31 ± 4 µM.

And the kcat (Ftu-1 β-lactamase [1])?
The kcat was 0.017 ± 0.001 S^–1.

Which Ki (Ftu-1 β-lactamase [3]) does the source give for `C[C@@H](O)[C@H]1C(=O)N2C(C(=O)O)=C(S[C@@H]3CN[C@H](C(=O)N(C)C)C3)[C@H](C)[C@H]12` [meropenem] here?
Its Ki is 1.53 µM.

With `CC(C)(O/N=C(\C(=O)N[C@@H]1C(=O)N2C(C(=O)[O-])=C(C[n+]3ccccc3)CS[C@H]12)c1csc(N)n1)C(=O)O` [ceftazidime] as the compound, how does the kcat (Ftu-1 β-lactamase [1]) read?
The kcat was 0.022 ± 0.001 S^–1.
